# Data: the supplement of paper PMC10307832
# How the values were obtained:
# Test in all cases: relative viability (nuclei count vs DMSO), 5 days (fraction); higher = more cells survive
# [1] = compound: CC(C)(C)c1nc(-c2cccc(NS(=O)(=O)c3c(F)cccc3F)c2F)c(-c2ccnc(N)n2)s1 [Dabrafenib] + CS(=O)(=O)CCNCc1ccc(-c2ccc3ncnc(Nc4ccc(OCc5cccc(F)c5)c(Cl)c4)c3c2)o1 [Lapatinib] (partner 2 µM)
# Method in brief: (§1)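 Values are medians from duplicate plates. Each reflects relative viability, defined as the nuclei count of treated wells over that of vehicle wells. Lung cancer cell lines in 1536-well plates were pin-tool dosed one day after seeding with one drug alone or with a fixed anchor-drug dose plus five library-drug doses (not always all listed) in √10 steps, then fixed, stained and imaged at 4× after 5 days.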
# [2] = compound: CC(C)(C)c1nc(-c2cccc(NS(=O)(=O)c3c(F)cccc3F)c2F)c(-c2ccnc(N)n2)s1 [Dabrafenib] + Cc1nc(Nc2ncc(C(=O)Nc3c(C)cccc3Cl)s2)cc(N2CCN(CCO)CC2)n1 [Dasatinib] (partner 0.075 µM)
# Method in brief: as §1
# [3] = compound: NC(=O)c1ccc(N(C(N)=O)c2c(F)cccc2F)nc1-c1ccc(F)cc1F [VX-702] + C[C@@H](Oc1cc(-c2cnn(C3CCNCC3)c2)cnc1N)c1c(Cl)ccc(F)c1Cl [Crizotinib] (partner 1 µM)
# Method in brief: as §1
# [4] = compound: NC(=O)c1ccc(N(C(N)=O)c2c(F)cccc2F)nc1-c1ccc(F)cc1F [VX-702] + O=C(c1cc(Cc2n[nH]c(=O)c3ccccc23)ccc1F)N1CCN(C(=O)C2CC2)CC1 [Olaparib] (partner 8 µM)
# Method in brief: as §1
Cell Line,relative viability ([1]; first compound 0.003 µM),relative viability ([1]; first compound 0.009487 µM),relative viability ([1]; first compound 0.03 µM),relative viability ([1]; first compound 0.09487 µM),relative viability ([1]; first compound 0.3 µM),relative viability ([2]; first compound 0.003 µM),relative viability ([2]; first compound 0.009487 µM),relative viability ([2]; first compound 0.03 µM),relative viability ([2]; first compound 0.09487 µM),relative viability ([2]; first compound 0.3 µM),relative viability ([3]; first compound 0.02 µM),relative viability ([3]; first compound 0.2 µM),relative viability ([3]; first compound 0.6325 µM),relative viability ([3]; first compound 2 µM),relative viability ([4]; first compound 0.02 µM),relative viability ([4]; first compound 0.2 µM),relative viability ([4]; first compound 0.6325 µM),relative viability ([4]; first compound 2 µM)
NCI-H2085,0.694,0.821,0.58,0.74,0.784,0.246,0.28,0.216,0.288,0.188,0.921,0.926,1.03,0.908,0.818,0.824,0.878,0.833
NCI-H2087,0.689,1.08,0.769,0.77,0.785,,0.894,0.798,0.519,0.657,0.847,0.862,0.867,0.739,0.552,0.58,0.669,0.709
NCI-H2126,0.735,0.783,0.75,0.842,0.89,0.582,0.642,0.681,0.713,0.69,1.04,1.13,1.05,1.08,0.901,0.91,0.945,0.98
NCI-H2170,0.263,0.265,0.268,0.291,0.311,0.597,0.483,0.53,0.618,0.544,1.28,1.09,1.24,1.4,0.611,0.546,0.631,0.676
NCI-H2228,0.856,1.2,1.01,1.01,1.14,,0.482,0.635,0.506,0.506,0.628,0.536,0.394,0.45,0.866,0.794,0.754,0.864
NCI-H2347,0.631,1.02,0.918,0.897,0.89,,0.309,0.308,0.448,0.38,0.733,0.763,0.858,0.731,0.498,0.467,0.638,0.456
NCI-H2405,,0.804,,0.853,0.937,,0.221,,0.181,0.172,0.791,0.813,0.774,0.99,0.931,0.805,0.897,0.901
NCI-H3122,1.05,1.08,1.04,0.959,1.08,0.773,0.767,0.908,0.793,0.75,0.268,0.238,0.251,0.258,0.636,0.61,0.66,0.555
PC-3 [JPC-3],0.448,0.509,0.416,0.434,0.429,0.882,1.06,0.925,0.881,1.03,0.974,0.966,1.03,1.04,1.2,1.14,1.16,1.31
